Data taken from patent US12486284B2, “Ubiquitin-specific protease inhibitor and preparation method therefor and use thereof” (CHASER THERAPEUTICS, INC., priority 2019, dated 2025).
Like-named read-outs stand apart in the source and are kept apart here.

Columns and labels:
USP28 = target: T1, USP28 (Homo sapiens, UniProt Q96RU2); assay: USP28 activity measured using ubiquitin-rhodamine 110 method; type: biochemical; conditions: for IC50: purified USP28 4 nM, ubiquitin-rhodamine 110 125 nM, 30 min preincubation; for IC50(F)/IC50(E) USP28: ratio of IC50 of related 3-NH2 compound (F) to IC50 of 3-NHMe compound disclosed herein (E)
T1 construct: purchased R&D Systems
T1 sequence (Q96RU2 1-1077): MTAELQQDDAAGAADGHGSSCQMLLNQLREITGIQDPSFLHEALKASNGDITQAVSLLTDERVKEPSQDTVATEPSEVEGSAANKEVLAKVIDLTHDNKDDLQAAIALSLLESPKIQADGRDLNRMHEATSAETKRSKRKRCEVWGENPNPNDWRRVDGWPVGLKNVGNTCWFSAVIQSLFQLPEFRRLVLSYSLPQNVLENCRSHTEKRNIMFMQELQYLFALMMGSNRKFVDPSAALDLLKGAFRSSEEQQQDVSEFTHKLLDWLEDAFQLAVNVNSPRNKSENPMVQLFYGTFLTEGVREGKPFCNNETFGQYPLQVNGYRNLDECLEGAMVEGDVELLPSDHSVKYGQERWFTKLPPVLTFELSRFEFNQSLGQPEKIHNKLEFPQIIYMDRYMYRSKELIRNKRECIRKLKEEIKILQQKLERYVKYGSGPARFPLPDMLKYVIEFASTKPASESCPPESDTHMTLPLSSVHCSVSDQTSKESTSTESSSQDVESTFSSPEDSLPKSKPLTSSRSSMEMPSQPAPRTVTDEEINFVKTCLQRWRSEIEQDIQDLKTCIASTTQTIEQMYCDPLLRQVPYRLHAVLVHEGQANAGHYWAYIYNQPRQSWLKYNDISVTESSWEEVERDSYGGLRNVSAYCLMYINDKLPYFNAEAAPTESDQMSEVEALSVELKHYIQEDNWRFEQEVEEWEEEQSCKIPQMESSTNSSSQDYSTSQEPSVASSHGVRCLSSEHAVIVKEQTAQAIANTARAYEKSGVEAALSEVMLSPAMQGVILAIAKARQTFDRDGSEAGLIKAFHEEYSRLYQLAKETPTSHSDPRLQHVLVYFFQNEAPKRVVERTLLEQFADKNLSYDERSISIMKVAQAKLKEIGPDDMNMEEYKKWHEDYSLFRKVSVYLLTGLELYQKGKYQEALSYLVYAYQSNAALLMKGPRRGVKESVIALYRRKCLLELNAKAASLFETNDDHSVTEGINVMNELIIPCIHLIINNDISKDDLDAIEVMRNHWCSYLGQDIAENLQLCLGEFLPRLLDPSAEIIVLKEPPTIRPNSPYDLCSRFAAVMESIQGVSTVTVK
Procedure: USP28 activity was measured using ubiquitin-rhodamine 110 method.
(§1) Purified USP28 and the ubiquitin-rhodamine 110 substrate used for measuring DUBs activity were both from R&D Systems. Test compounds were first dissolved in DMSO to prepare a 10 mM stock solution, and then the stock solution was diluted with a buffer solution [containing 20 mM Tris-HCl (pH 8.0), 2 mM CaCl2), 3 mM BME, 0.01% Prionix, 0.01% Triton X-100] to the desired concentration (with DMSO content less than or equal to 0.5%). The dilution was mixed well with USP28 (final concentration 4 nM) in a 96-well plate and incubated at room temperature for 30 min, and then added with the substrate (ubiquitin-rhodamine 110) to 125 nM. The final volume of the whole reaction system was 20 μL. The released fluorescence (excitation wavelength 485 nm, emission wavelength 535 nm) was detected immediately on a microplate reader after the addition of the substrate. The inhibitory rate of the test compound against USP28 was calculated according to the following formula: Inhibition %=1−[(test compound+fluorescence value of substrate−fluorescence value of test compound (no substrate))/mean fluorescence value of DMSO control group−fluorescence value of test compound (no substrate)]
According to the inhibitory rates of the test compound against USP28 under different concentrations, IC50 was calculated.

USP25 = target: T2, USP25 (Homo sapiens, UniProt Q9UHP3); assay: USP25 activity measured using ubiquitin-rhodamine 110 method; type: biochemical; conditions: for IC50: purified USP25 15 nM, ubiquitin-rhodamine 110 125 nM, 30 min preincubation; for IC50(F)/IC50(E) USP25: ratio of IC50 of related 3-NH2 compound (F) to IC50 of 3-NHMe compound disclosed herein (E)
T2 construct: purchased R&D Systems
T2 sequence (Q9UHP3 1-1055): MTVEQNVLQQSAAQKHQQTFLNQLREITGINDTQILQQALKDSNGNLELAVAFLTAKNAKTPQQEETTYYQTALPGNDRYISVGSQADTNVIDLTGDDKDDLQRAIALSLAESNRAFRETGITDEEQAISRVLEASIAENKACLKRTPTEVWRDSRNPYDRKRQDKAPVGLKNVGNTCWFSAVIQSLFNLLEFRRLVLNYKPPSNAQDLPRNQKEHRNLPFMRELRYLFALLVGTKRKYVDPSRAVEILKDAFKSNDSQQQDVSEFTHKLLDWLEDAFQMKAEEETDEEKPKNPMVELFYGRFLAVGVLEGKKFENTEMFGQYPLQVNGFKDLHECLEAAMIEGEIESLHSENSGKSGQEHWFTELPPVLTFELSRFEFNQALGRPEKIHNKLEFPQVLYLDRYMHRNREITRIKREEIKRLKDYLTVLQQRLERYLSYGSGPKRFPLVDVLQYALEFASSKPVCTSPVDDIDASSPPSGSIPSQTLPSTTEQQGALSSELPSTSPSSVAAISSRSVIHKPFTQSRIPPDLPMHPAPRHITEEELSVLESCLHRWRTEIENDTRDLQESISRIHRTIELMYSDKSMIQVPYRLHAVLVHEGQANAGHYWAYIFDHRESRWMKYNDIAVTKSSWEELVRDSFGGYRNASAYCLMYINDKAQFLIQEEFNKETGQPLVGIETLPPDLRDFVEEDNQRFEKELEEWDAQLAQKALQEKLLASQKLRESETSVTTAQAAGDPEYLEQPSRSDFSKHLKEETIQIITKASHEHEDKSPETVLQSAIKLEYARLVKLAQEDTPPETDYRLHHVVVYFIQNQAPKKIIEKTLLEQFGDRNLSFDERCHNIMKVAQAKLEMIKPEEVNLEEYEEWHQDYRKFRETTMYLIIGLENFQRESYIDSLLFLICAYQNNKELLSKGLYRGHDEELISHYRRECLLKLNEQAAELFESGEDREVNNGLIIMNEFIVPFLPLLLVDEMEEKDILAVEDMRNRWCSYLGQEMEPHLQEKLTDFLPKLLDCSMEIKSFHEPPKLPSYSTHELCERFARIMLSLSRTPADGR
Procedure: USP25 activity was measured using ubiquitin-rhodamine 110 method.
as §1, with “Purified USP25” for “Purified USP28”, “with USP25” for “with USP28”, “concentration 15” for “concentration 4”, “the substrate, and the” for “the substrate. The”, “against USP25” for “against USP28”
As in Example 11, according to the inhibitory rates of the test compound against USP25 under different concentrations, IC50 was calculated.

[1] = read-out: Inhibitory activity against USP28 (IC50)
[2] = read-out: Inhibitory activity against USP25 (IC50)
[3] = Inhibitory activity against USP28 (IC50)
[4] = Inhibitory activity against USP25 (IC50)

Row | SMILES | IC50 (USP28; [1]) | IC50 (USP25; [2]) | IC50(F)/IC50(E) USP28 (USP28) | IC50(F)/IC50(E) USP25 (USP25) | IC50 (USP28; [3]) | IC50 (USP25; [4])
1 | CNc1c(C(=O)NCCc2c[nH]c3ccccc23)sc2nc(C(F)(F)F)ccc12 [Compound I-54] | < 100 nM | 5000 to 10000 nM |  |  |  | 
2 | CNc1c(C(=O)N[C@H](COC)Cc2c[nH]c3ccccc23)sc2nc(C)ccc12 [Compound I-55] | 1000 to 5000 nM | > 10000 nM |  |  |  | 
3 | CNc1c(C(=O)NCCc2coc3ccccc23)sc2nc(C)ccc12 [Compound I-56] | 100 to 1000 nM | 1000 to 5000 nM |  |  |  | 
4 | CNc1c(C(=O)NCCc2csc3ccccc23)sc2nc(C)ccc12 [Compound I-57] | < 100 nM | 5000 to 10000 nM |  |  |  | 
5 | CNc1c(C(=O)NCCc2ccc(OC)c(OC)c2)sc2nc(C)ccc12 [Compound I-58] | 100 to 1000 nM | > 10000 nM | 5.0 | >8 |  | 
6 | CCc1nc2sc(C(=O)NCCc3ccc(OC)c(OC)c3)c(NC)c2c(C(F)(F)F)c1C [Compound I-59] | < 100 nM | 1000 to 5000 nM |  |  |  | 
7 | CNc1c(C(=O)NCCc2ccc(OC)c(OC)c2)sc2nc(C)cc(C)c12 [Compound I-60] | < 100 nM | 5000 to 10000 nM |  |  |  | 
8 | CNc1c(C(=O)N[C@@H](C)Cc2ccc(Br)cc2)sc2nc(C)ccc12 [Compound I-61] | 1000 to 5000 nM | > 10000 nM |  |  |  | 
9 | CNc1c(C(=O)N[C@H](C)Cc2ccc(Br)cc2)sc2nc(C)ccc12 [Compound I-62] | 100 to 1000 nM | > 10000 nM |  |  |  | 
10 | CNc1c(C(=O)N[C@@H](C)Cc2ccc(N3C[C@H]4CC[C@@H](C3)N4)cc2)sc2nc(C)ccc12 [Compound I-63] | 100 to 1000 nM | > 10000 nM |  |  |  | 
11 | CNc1c(C(=O)N[C@H](C)Cc2ccc(N3C[C@H]4CC[C@@H](C3)N4)cc2)sc2nc(C)ccc12 [Compound I-64] |  | 100 to 1000 nM |  |  | < 100 nM | 
12 | CNc1c(C(=O)N[C@H](COC)Cc2ccc(N3C[C@H]4CC[C@@H](C3)N4)cc2)sc2nc(C)ccc12 [Compound I-65] | 100 to 1000 nM | 5000 to 10000 nM |  |  |  | 
13 | CNc1c(C(=O)N[C@@H](Cc2ccc(N3C[C@H]4CC[C@@H](C3)N4)cc2)C(F)(F)F)sc2nc(C)ccc12 [Compound I-66] | 100 to 1000 nM | 100 to 1000 nM |  |  |  | 
14 | CNc1c(C(=O)NC[C@H](C)c2ccc(N3C[C@H]4CC[C@@H](C3)N4)cc2)sc2nc(C)ccc12 [Compound I-67] | 100 to 1000 nM | 100 to 1000 nM |  |  |  | 
15 | CNc1c(C(=O)NC[C@@H](C)c2ccc(N3C[C@H]4CC[C@@H](C3)N4)cc2)sc2nc(C)ccc12 [Compound I-68] | 100 to 1000 nM | 100 to 1000 nM |  |  |  | 
16 | CNc1c(C(=O)NC[C@@H](F)c2ccc(N3C[C@H]4CC[C@@H](C3)N4)cc2)sc2nc(C)ccc12 [Compound I-69] |  | 100 to 1000 nM |  |  | < 100 nM | 
17 | CNc1c(C(=O)NCCc2ccc(N3C[C@H]4CC[C@@H](C3)N4)cc2)sc2nccnc12 [Compound I-70] | 1000 to 5000 nM | > 10000 nM |  |  |  | 
18 | CNc1c(C(=O)NCCc2ccc(N3C[C@H]4CC[C@@H](C3)N4)cc2)sc2nc(C)cnc12 [Compound I-71] |  | 5000 to 10000 nM |  |  | < 100 nM | 
19 | CCc1cnc2c(NC)c(C(=O)NCCc3ccc(N4C[C@H]5CC[C@@H](C4)N5)cc3)sc2n1 [Compound I-72] |  | 100 to 1000 nM |  |  | < 100 nM | 
20 | CNc1c(C(=O)NCCc2ccc(N3CC4CCC(C3)N4)cc2)sc2nc(C(C)C)cnc12 [Compound I-73] |  | 100 to 1000 nM |  |  | < 100 nM | 
21 | CCc1nc2sc(C(=O)NCCc3ccc(N4C[C@H]5CC[C@@H](C4)N5)cc3)c(NC)c2nc1C [Compound I-74] |  |  |  |  | < 100 nM | < 100 nM
22 | CNc1c(C(=O)NCCc2ccc(N3C[C@H]4CC[C@@H](C3)N4)c(Cl)c2)sc2nc(C)cnc12 [Compound I-75] |  |  |  |  | < 100 nM | < 100 nM
23 | CNc1c(C(=O)NCCc2ccc(N3C[C@H]4CC[C@@H](C3)N4)c(F)c2)sc2nc(C)cnc12 [Compound I-76] |  |  | 33.3 | >20 | < 100 nM | < 100 nM
24 | CNc1c(C(=O)NCCc2ccc(N3C[C@H]4CC[C@@H](C3)N4)cc2F)sc2nc(C)cnc12 [Compound I-77] |  |  |  |  | < 100 nM | < 100 nM
25 | CNc1c(C(=O)NCCc2cc(F)c(N3C[C@H]4CC[C@@H](C3)N4)cc2F)sc2nc(C)cnc12 [Compound I-78] |  |  |  |  | < 100 nM | < 100 nM
26 | CNc1c(C(=O)NC[C@H](C)c2cc(F)c(N3C[C@H]4CC[C@@H](C3)N4)cc2F)sc2nc(C)cnc12 [Compound I-79] |  | 100 to 1000 nM |  |  | < 100 nM | 
27 | CNc1c(C(=O)NCCc2ccc(N3C[C@H]4CC[C@@H](C3)N4)cc2)sc2nc(C#N)ccc12 [Compound I-80] | 1000 to 5000 nM | 1000 to 5000 nM |  |  |  | 
28 | CNc1c(C(=O)NCCc2ccc(N3C[C@H]4CC[C@@H](C3)N4)cc2F)sc2nc(Cl)cnc12 [Compound I-81] | 1000 to 5000 nM | > 10000 nM |  |  |  | 
